Among the test systems are U251 CNS; SF-295 CNS; HCC-2998 colon; EKVX NSCLC; NCI-H226 lung; SF-268 CNS; MOLT-4 leukemia; UACC-62 melanoma; SK-MEL-5 melanoma; UACC-257 melanoma.
What all share (test): inhibition of tumour cell growth, NCI panel, 48 h

SMILES strings stand for the structures.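 48-hour exposure; five concentrations; linearly interpolated endpoints. Abbreviation: GI50, concentration required for 50% inhibition of growth. TGI: total growth inhibition.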

On to `COC(=O)C1=C(C)NC(C)=C(C(=O)OC)C1c1ccccc1[N+](=O)[O-]`, for which the GI50 with U251 CNS was > 100 µM; in the experiment with SF-295 CNS, 57.8 µM; in the experiment with HCC-2998 colon, > 100 µM; in the experiment on EKVX NSCLC, 64.3 µM; in the experiment on NCI-H226 lung, 87.6 µM; with SF-268 CNS it was > 100 µM. Besides, the figures for the GI50 with MOLT-4 leukemia and in the experiment with UACC-62 melanoma were 78.2 µM and 29.6 µM, respectively. For the same compound, the TGI in the experiment on U251 CNS, with SF-295 CNS, with HCC-2998 colon, in the experiment on EKVX NSCLC, in the experiment on NCI-H226 lung and in the experiment on SF-268 CNS was > 100 µM throughout. Moreover, the TGI in the experiment on MOLT-4 leukemia and in the experiment on UACC-62 melanoma was > 100 µM in each case.
Turning to `O=C1/C(=C/c2ccc(Cl)cc2)COc2ccc(Br)cc21`, the TGI in the experiment with U251 CNS, in the experiment on SF-295 CNS, in the experiment with SK-MEL-5 melanoma, with HCC-2998 colon, in the experiment with EKVX NSCLC and in the experiment with SF-268 CNS was > 100 µM each time. In addition, the TGI with MOLT-4 leukemia and in the experiment with UACC-257 melanoma was > 100 µM each time.
For the compound `COc1ccccc1NC(=O)NS(=O)(=O)c1ccccc1`, the TGI in the experiment with U251 CNS, with SF-295 CNS, in the experiment with SK-MEL-5 melanoma, with HCC-2998 colon, in the experiment on EKVX NSCLC and in the experiment on NCI-H226 lung was > 100 µM each time. Besides, the TGI in the experiment on SF-268 CNS and in the experiment on UACC-257 melanoma was > 100 µM throughout.
Take `CCC1C(=O)OCc2c1cc1n(c2=O)Cc2ccccc2-1` (stereo unspecified): the TGI in the experiment with SF-295 CNS, with SK-MEL-5 melanoma, in the experiment on HCC-2998 colon, in the experiment with EKVX NSCLC, in the experiment on NCI-H226 lung and in the experiment on SF-268 CNS was > 100 µM each time. In addition, the TGI with MOLT-4 leukemia, in the experiment with UACC-257 melanoma and in the experiment on UACC-62 melanoma was > 100 µM each time.
Take `CCN1CCN(c2nc(NNC(=O)c3cccc(OC)c3)nc(N3CCN(C(c4ccccc4)c4ccccc4)CC3)n2)CC1`: the GI50 is 1.87 µM with SF-295 CNS; 1.64 µM with SK-MEL-5 melanoma; 1.96 µM in the experiment on HCC-2998 colon; 2.46 µM in the experiment with EKVX NSCLC; 1.69 µM with NCI-H226 lung; 1.95 µM in the experiment with SF-268 CNS. In addition, the GI50 in the experiment with MOLT-4 leukemia is 2.03 µM; with UACC-257 melanoma, 2.18 µM; with UACC-62 melanoma it was 1.84 µM. Further, the TGI in the experiment on SF-295 CNS was found to be 3.6 µM; with SK-MEL-5 melanoma it was 3 µM; in the experiment on HCC-2998 colon, 4.33 µM; in the experiment with EKVX NSCLC it was 12.3 µM; with NCI-H226 lung it was 3.76 µM; in the experiment with SF-268 CNS, 4.2 µM. The TGI in the experiment on MOLT-4 leukemia was determined as 4.72 µM; in the experiment on UACC-257 melanoma, 4.99 µM; in the experiment with UACC-62 melanoma, 3.71 µM.
With `CC(C(=O)C(C)O[Si](c1ccccc1)(c1ccccc1)C(C)(C)C)=P(c1ccccc1)(c1ccccc1)c1ccccc1` (stereo unspecified), the TGI in the experiment with U251 CNS worked out at 14.1 µM; with SF-295 CNS it was 10.3 µM; in the experiment on SK-MEL-5 melanoma, 8.12 µM; with HCC-2998 colon, 12.3 µM; in the experiment on EKVX NSCLC, 29.2 µM; in the experiment with NCI-H226 lung, 10.6 µM. The values for the TGI in the experiment with MOLT-4 leukemia, in the experiment with UACC-257 melanoma and with UACC-62 melanoma were 13.5 µM, 13.5 µM and 14.4 µM, respectively.
For the compound `CCCN(CCC)c1c([N+](=O)[O-])cc(C(N)=O)cc1[N+](=O)[O-]`, the TGI was > 100 µM with U251 CNS; > 100 µM with SF-295 CNS; 53.8 µM in the experiment with SK-MEL-5 melanoma; > 100 µM in the experiment on HCC-2998 colon; > 100 µM in the experiment on EKVX NSCLC; > 100 µM in the experiment with NCI-H226 lung. Further, the TGI in the experiment on SF-268 CNS, in the experiment on MOLT-4 leukemia and in the experiment on UACC-257 melanoma was > 100 µM each time.
For `Cc1c(-c2ccnc(N)n2)c2c(n1-c1ccccc1)C(=O)c1ccccc1C2=O`, the GI50 is 18.9 µM with U251 CNS; 14 µM in the experiment with SF-295 CNS; 16.2 µM in the experiment on SK-MEL-5 melanoma; 19.7 µM in the experiment on HCC-2998 colon; 21.5 µM in the experiment with EKVX NSCLC; 34.2 µM in the experiment on UACC-257 melanoma. Further, the GI50 in the experiment on UACC-62 melanoma is 27.2 µM. The TGI with U251 CNS came to 74.9 µM; in the experiment with SF-295 CNS, 30.7 µM; with SK-MEL-5 melanoma, 34.1 µM; in the experiment on HCC-2998 colon it was 46.5 µM; in the experiment with EKVX NSCLC, 63.7 µM; in the experiment with UACC-257 melanoma, 91.9 µM. In the experiment on UACC-62 melanoma, this compound came in with a TGI of 77.2 µM.
Regarding `Nc1ccc(C(=O)N/C(=C\c2ccc3c(c2)OCO3)c2nc3ccc4c(c3[nH]2)C(=O)c2ccccc2C4=O)cc1`, the TGI in the experiment with U251 CNS, in the experiment on SF-295 CNS, in the experiment on SK-MEL-5 melanoma, in the experiment on HCC-2998 colon, in the experiment with EKVX NSCLC and in the experiment on SF-268 CNS was > 100 µM in each case. Further, the TGI in the experiment on MOLT-4 leukemia, in the experiment with UACC-257 melanoma and in the experiment with UACC-62 melanoma was > 100 µM each time.
As for `N#CCCCCCn1c2ccccc2c2c3c(c4c5ccccc5[nH]c4c21)C(=O)N(O)C3=O`, the GI50 is 0.435 µM with U251 CNS; 2.44 µM in the experiment on SF-295 CNS; 0.403 µM with SK-MEL-5 melanoma; 1.82 µM in the experiment on HCC-2998 colon; 1.77 µM with EKVX NSCLC; 1.93 µM with NCI-H226 lung. Further, the figures for the GI50 in the experiment on SF-268 CNS, in the experiment with MOLT-4 leukemia and in the experiment with UACC-257 melanoma were 0.957 µM, 0.37 µM and 1.95 µM, respectively. The TGI in the experiment on U251 CNS was found to be 1.57 µM; in the experiment with SF-295 CNS it was 6.95 µM; in the experiment on SK-MEL-5 melanoma, 1.5 µM; with HCC-2998 colon, 6.06 µM; in the experiment on EKVX NSCLC, 5.63 µM; in the experiment with NCI-H226 lung, 4.74 µM. For the same compound, the TGI was 48.1 µM in the experiment on SF-268 CNS, 4.33 µM in the experiment with MOLT-4 leukemia and 5.45 µM in the experiment on UACC-257 melanoma.
Regarding `CC(C)C(NCc1c2ccccc2nc2ccccc12)C(=O)O` (stereo unspecified), the TGI with U251 CNS, with SF-295 CNS, in the experiment on SK-MEL-5 melanoma, in the experiment on HCC-2998 colon, with EKVX NSCLC and with NCI-H226 lung was > 100 µM throughout. The TGI in the experiment with SF-268 CNS is > 100 µM; with MOLT-4 leukemia, 69.1 µM; in the experiment on UACC-257 melanoma it was > 100 µM.
For `CC1CC(=O)CC[C@@H]1OCc1ccccc1` (stereo partly specified), the TGI in the experiment on U251 CNS, in the experiment with SF-295 CNS, in the experiment on SK-MEL-5 melanoma, with HCC-2998 colon, in the experiment on EKVX NSCLC and with SF-268 CNS was > 100 µM each time. Moreover, the TGI with MOLT-4 leukemia, with UACC-257 melanoma and with UACC-62 melanoma was > 100 µM in each case.
For the compound `CCOc1c(Cc2ccccc2)c(=O)n2c3ccccc3n3c(=O)n(C)c(=O)c1c23`, the TGI in the experiment on U251 CNS, in the experiment with SF-295 CNS, in the experiment with SK-MEL-5 melanoma, in the experiment on HCC-2998 colon, in the experiment on EKVX NSCLC and with SF-268 CNS was > 100 µM throughout. In addition, the TGI in the experiment with MOLT-4 leukemia, in the experiment on UACC-257 melanoma and in the experiment with UACC-62 melanoma was > 100 µM each time.
Regarding `O=C(c1nc2ccccc2[nH]1)C1C(c2cccc([N+](=O)[O-])c2)C2CC3CCCCC3N2[C@@]12C(=O)Nc1cc(Cl)ccc12` (stereo partly specified), the GI50 in the experiment with SF-295 CNS was 1.56 µM; in the experiment on SK-MEL-5 melanoma, 1.69 µM; with HCC-2998 colon, 1.88 µM; in the experiment on EKVX NSCLC, 2.02 µM; in the experiment on NCI-H226 lung, 1.59 µM; in the experiment on SF-268 CNS, 2.11 µM. The GI50 in the experiment on MOLT-4 leukemia is 2.38 µM; with UACC-257 melanoma, 1.9 µM; in the experiment with UACC-62 melanoma, 1.5 µM. The TGI in the experiment with SF-295 CNS was 3.58 µM; in the experiment with SK-MEL-5 melanoma, 3.1 µM; in the experiment on HCC-2998 colon, 3.83 µM; with EKVX NSCLC it was 6.31 µM; in the experiment with NCI-H226 lung it was 3.48 µM; in the experiment with SF-268 CNS it was 5.43 µM. Besides, the TGI with MOLT-4 leukemia amounted to 10.1 µM; in the experiment with UACC-257 melanoma, 6.09 µM; in the experiment on UACC-62 melanoma, 3.2 µM.
With `Cc1ccc(/C=C2\CN(C(=O)CCN3CCC(=NO)CC3)C/C(=C\c3ccc(C)cc3)C2=O)cc1`, the GI50 with SK-MEL-5 melanoma is 1.73 µM; with HCC-2998 colon it was 1.57 µM; in the experiment with EKVX NSCLC, 2.72 µM; in the experiment with NCI-H226 lung, 1.83 µM; in the experiment on SF-268 CNS it was 1.92 µM. Besides, the TGI in the experiment on SK-MEL-5 melanoma was 3.16 µM; in the experiment on HCC-2998 colon, 3.18 µM; with EKVX NSCLC, 8.07 µM; in the experiment with NCI-H226 lung, 3.86 µM; in the experiment on SF-268 CNS, 4.7 µM.
Consider `O=C(CN1CCN(c2cc3c(cc2F)c(=O)c(C(=O)O)cn3C2CC2)CC1)Nc1ccc(C(=O)/C=C/c2ccccc2)cc1`, for which the GI50 was 2.92 µM with U251 CNS; 2.11 µM with SF-295 CNS; 2.74 µM in the experiment on SK-MEL-5 melanoma; 39.6 µM with HCC-2998 colon; 6.83 µM in the experiment on NCI-H226 lung; 4.13 µM in the experiment on SF-268 CNS. Moreover, the GI50 was 5.13 µM in the experiment with MOLT-4 leukemia, 3.9 µM in the experiment on UACC-257 melanoma and 3.71 µM in the experiment on UACC-62 melanoma. The TGI in the experiment on U251 CNS is > 100 µM; in the experiment on SF-295 CNS, 6.25 µM; in the experiment with SK-MEL-5 melanoma it was 13 µM; with HCC-2998 colon it was > 100 µM; in the experiment with NCI-H226 lung, > 100 µM; in the experiment with SF-268 CNS, > 100 µM. The TGI is > 100 µM in the experiment on MOLT-4 leukemia, 90.8 µM in the experiment with UACC-257 melanoma and > 100 µM with UACC-62 melanoma.

Source of the values: PubChem BioAssay (NCI).
